Source: patent publication US11753407B2, “Compounds for treating spinal muscular atrophy” (PTC Therapeutics, Inc., priority 2012, dated 2023)

Key:
[1] = system: SMN2 minigene mRNA (SMN2-A minigene) in HEK293H cells; experiment: SMN2 minigene mRNA splicing RT-qPCR assay in cultured cells; type: cell-based, human; details: Homo sapiens, HEK293-H; concentration increasing full length SMN2 mRNA 1.5-fold relative to vehicle-treated cells; HEK293H cells with SMN2-A minigene, 24 hours, 7-point concentration data; read-out: EC1.5x for production of full length SMN2 mRNA
Procedure, shortened: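 HEK293H cells stably carrying SMN2-A minigene treated with compounds (7-point, 3.16-fold dilutions, duplicates) for 24 h at 37 °C. Full-length exon 7-containing minigene mRNA measured by multiplex RT-qPCR with GAPDH, normalized and expressed relative to vehicle (modified ΔΔCt); EC1.5× is concentration giving 1.5-fold increase.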

[2] = system: Smn protein in SMA patient fibroblast cells (GM03813); experiment: Smn protein assay in cultured cells (SMN HTRF); type: cell-based, human; details: SMA patient fibroblast cells, 48 hours; for EC1.5x for Smn protein expression: 7-point concentration curve, SMN HTRF, concentration producing 1.5 times Smn protein vs DMSO vehicle control; for maximum fold (Fold) increase of Smn protein: 7-point concentration data, fold relative to vehicle control
Procedure, shortened: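 SMA patient fibroblasts (5,000/well, DMEM-10% FBS) treated 48 h at 37° C with 7-point, 3.16-fold compound series in triplicate; lysates read by SMN HTRF (665/620 nm ratio). Fold Smn increase over DMSO vehicle derived; EC1.5× is concentration giving 1.5-fold Smn, with maximum fold also reported.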

| SMILES | melting point | EC (1.5-fold increase) [1] | EC1.5x for Smn protein expression [2] | maximum fold (Fold) increase of Smn protein [2] |
| --- | --- | --- | --- | --- |
| CCN1CCC(c2ccc3nc(-c4ccc5nc(C)oc5c4)cc(=O)n3n2)CC1 [Compound 501, 7-(1-ethylpiperidin-4-yl)-2-(2-methyl-1,3-benzoxazol-6-yl)-4H-pyrimido[1,2-b]pyridazin-4-one] | 284 to 286 °C | 0.1 to 0.3 µM | *** (an EC1.5× between >0.3 μM and ≤1 μM is indicated by three stars (***)) | ***** (a fold increase >1.65 is indicated by five stars (*****)) |
| Cn1ncc2cc(-c3cc(=O)n4cc(C5=CCNCC5)ncc4n3)ccc21 [Compound 505, 2-(1-methyl-1H-indazol-5-yl)-7-(1,2,3,6-tetrahydropyridin-4-yl)-4H-pyrazino[1,2-a]pyrimidin-4-one] | 228 to 230 °C | < 0.1 µM | **** (an EC1.5x≤0.3 μM is indicated by four stars (****)) | **** (a fold increase between >1.5 and ≤1.65 is indicated by four stars (****)) |
| CN1CC=C(c2cn3c(=O)cc(-c4ccc5c(cnn5C)c4)nc3cn2)CC1 [Compound 506, 2-(1-methyl-1H-indazol-5-yl)-7-(1-methyl-1,2,3,6-tetrahydropyridin-4-yl)-4H-pyrazino[1,2-a]pyrimidin-4-one] | 234 to 236 °C | < 0.1 µM | **** (an EC1.5x≤0.3 μM is indicated by four stars (****)) | **** (a fold increase between >1.5 and ≤1.65 is indicated by four stars (****)) |
| Cc1cn2nc(-c3cc(=O)n4cc(N5CCN[C@H](C)C5)cc(C)c4n3)cc2c(C)n1 [Compound 509, 2-(4,6-dimethylpyrazolo[1,5-a]pyrazin-2-yl)-9-methyl-7-[(3R)-3-methylpiperazin-1-yl]-4H-pyrido[1,2-a]pyrimidin-4-one] | 213 to 222 °C | < 0.1 µM | *** (an EC1.5× between >0.3 μM and ≤1 μM is indicated by three stars (***)) | **** (a fold increase between >1.5 and ≤1.65 is indicated by four stars (****)) |
| Cc1cn2nc(-c3cc(=O)n4cc(N5CCN(C)[C@H](C)C5)cc(C)c4n3)cc2c(C)n1 [Compound 510, 7-[(3R)-3,4-dimethylpiperazin-1-yl]-2-(4,6-dimethylpyrazolo[1,5-a]pyrazin-2-yl)-9-methyl-4H-pyrido[1,2-a]pyrimidin-4-one] | 244 to 253 °C | < 0.1 µM | **** (an EC1.5x≤0.3 μM is indicated by four stars (****)) | ***** (a fold increase >1.65 is indicated by five stars (*****)) |
| CCN1CCN(c2cc(C)c3nc(-c4cc5c(C)nc(C)cn5n4)cc(=O)n3c2)C[C@H]1C [Compound 511, 2-(4,6-dimethylpyrazolo[1,5-a]pyrazin-2-yl)-7-[(3R)-4-ethyl-3-methylpiperazin-1-yl]-9-methyl-4H-pyrido[1,2-a]pyrimidin-4-one] | 240 to 245 °C | < 0.1 µM | ** (an EC1.5× between >1 μM and ≤3 μM is indicated by two stars (**)) | **** (a fold increase between >1.5 and ≤1.65 is indicated by four stars (****)) |
| CCN1CCC(c2ccc3nc(-c4cc5c(C)nc(C)cn5n4)cc(=O)n3n2)CC1 [Compound 514, 2-(4,6-dimethylpyrazolo[1,5-a]pyrazin-2-yl)-7-(1-ethylpiperidin-4-yl)-4H-pyrimido[1,2-b]pyridazin-4-one] | 283 to 285 °C | 0.1 to 0.3 µM | ** (an EC1.5× between >1 μM and ≤3 μM is indicated by two stars (**)) | ***** (a fold increase >1.65 is indicated by five stars (*****)) |

Further lines, with some results ahead:

| melting point | SMILES | EC (1.5-fold increase) [1] | EC1.5x for Smn protein expression [2] | maximum fold (Fold) increase of Smn protein [2] |
| --- | --- | --- | --- | --- |
| 272 to 275 °C | Cc1nc2ccc(-c3cc(=O)n4nc(C5CCN(C)CC5)ccc4n3)cc2o1 [Compound 500, 2-(2-methyl-1,3-benzoxazol-6-yl)-7-(1-methylpiperidin-4-yl)-4H-pyrimido[1,2-b]pyridazin-4-one] | 0.1 to 0.3 µM | *** (an EC1.5× between >0.3 μM and ≤1 μM is indicated by three stars (***)) | ***** (a fold increase >1.65 is indicated by five stars (*****)) |
| 257 to 259 °C | Cc1cn2nc(-c3cc(=O)n4cc(C5CCN(C)CC5)ncc4n3)cc2c(C)n1 [Compound 503, 2-(4,6-dimethylpyrazolo[1,5-a]pyrazin-2-yl)-7-(1-methylpiperidin-4-yl)-4H-pyrazino[1,2-a]pyrimidin-4-one] | < 0.1 µM | **** (an EC1.5x≤0.3 μM is indicated by four stars (****)) | ***** (a fold increase >1.65 is indicated by five stars (*****)) |
| 265 to 267 °C | Cc1cn2nc(-c3cc(=O)n4nc(C5CCN(C)CC5)ccc4n3)cc2c(C)n1 [Compound 513, 2-(4,6-dimethylpyrazolo[1,5-a]pyrazin-2-yl)-7-(1-methylpiperidin-4-yl)-4H-pyrimido[1,2-b]pyridazin-4-one] | 0.1 to 0.3 µM | **** (an EC1.5x≤0.3 μM is indicated by four stars (****)) | ***** (a fold increase >1.65 is indicated by five stars (*****)) |
| 198 to 200 °C | Cc1cn2nc(-c3cc(=O)n4cc(N5CCC6NCCC6C5)ccc4n3)cc2c(C)n1 (centres unmarked) [Compound 515, 2-(4,6-dimethylpyrazolo[1,5-a]pyrazin-2-yl)-7-(octahydro-5H-pyrrolo[3,2-c]pyridin-5-yl)-4H-pyrido[1,2-a]pyrimidin-4-one] | < 0.1 µM | **** (an EC1.5x≤0.3 μM is indicated by four stars (****)) | ***** (a fold increase >1.65 is indicated by five stars (*****)) |
| 287 to 293 °C | Cc1cn2cc(-c3cc(=O)n4cc(C5CCNCC5)ccc4n3)cc(Cl)c2n1 [Compound 516, 2-(8-chloro-2-methylimidazo[1,2-a]pyridin-6-yl)-7-(piperidin-4-yl)-4H-pyrido[1,2-a]pyrimidin-4-one] | < 0.1 µM | **** (an EC1.5x≤0.3 μM is indicated by four stars (****)) | **** (a fold increase between >1.5 and ≤1.65 is indicated by four stars (****)) |
| 292 to 296 °C | Cc1cn2cc(-c3cc(=O)n4cc(C5CCN(C)CC5)ccc4n3)cc(Cl)c2n1 [Compound 517, 2-(8-chloro-2-methylimidazo[1,2-a]pyridin-6-yl)-7-(1-methylpiperidin-4-yl)-4H-pyrido[1,2-a]pyrimidin-4-one] | < 0.1 µM | **** (an EC1.5x≤0.3 μM is indicated by four stars (****)) | ***** (a fold increase >1.65 is indicated by five stars (*****)) |
| 240 to 246 °C | CCN1CCC(c2ccc3nc(-c4cc(Cl)c5nc(C)cn5c4)cc(=O)n3c2)CC1 [Compound 518, 2-(8-chloro-2-methylimidazo[1,2-a]pyridin-6-yl)-7-(1-ethylpiperidin-4-yl)-4H-pyrido[1,2-a]pyrimidin-4-one] | < 0.1 µM | **** (an EC1.5x≤0.3 μM is indicated by four stars (****)) | **** (a fold increase between >1.5 and ≤1.65 is indicated by four stars (****)) |
| 279 to 285 °C | Cc1cn2cc(-c3cc(=O)n4cc(C5CCN(C(C)C)CC5)ccc4n3)cc(Cl)c2n1 [Compound 519, 2-(8-chloro-2-methylimidazo[1,2-a]pyridin-6-yl)-7-[1-(propan-2-yl)piperidin-4-yl]-4H-pyrido[1,2-a]pyrimidin-4-one] | < 0.1 µM | **** (an EC1.5x≤0.3 μM is indicated by four stars (****)) | ***** (a fold increase >1.65 is indicated by five stars (*****)) |
| 260 to 262 °C | CN1CCC(c2ccc3nc(-c4ccc5nn(C)cc5c4)cc(=O)n3n2)CC1 [Compound 522, 2-(2-methyl-2H-indazol-5-yl)-7-(1-methylpiperidin-4-yl)-4H-pyrimido[1,2-b]pyridazin-4-one] | < 0.1 µM | *** (an EC1.5× between >0.3 μM and ≤1 μM is indicated by three stars (***)) | ***** (a fold increase >1.65 is indicated by five stars (*****)) |
| 253 to 255 °C | CCN1CCC(c2ccc3nc(-c4ccc5nn(C)cc5c4)cc(=O)n3n2)CC1 [Compound 523, 7-(1-ethylpiperidin-4-yl)-2-(2-methyl-2H-indazol-5-yl)-4H-pyrimido[1,2-b]pyridazin-4-one] | < 0.1 µM | **** (an EC1.5x≤0.3 μM is indicated by four stars (****)) | ***** (a fold increase >1.65 is indicated by five stars (*****)) |
